Like-named read-outs stand apart in the source and are kept apart here.
Legend:
Cos-7 cells = test: LDH cytotoxicity assay on Cos-7 cells; assay type: cell-based; settings: 24 h
Procedure: To assess the cytotoxicity properties of BPPB, the lactate dehydrogenase (LDH) cytotoxicity assay (Abcam, Cat#ab102526) was performed, following manufacturer’s protocol, as previously described. This time, the increasing concentrations of BPPB were in the range 0.4–85.3 µM.
In this study, the cytotoxicity profile of BPPB was assessed in both immortalized human liver cells (HepG2) cells, as in our previous works, and in transformed African green monkey kidney fibroblast cells (Cos-7), as reported in a recent paper. Specifically, we evaluated the cytotoxicity of BPPB by carrying out both the MTT proliferation assay and the lactate dehydrogenase (LHD) cytotoxicity assay, which measures the LDH activity as an indicator of cell death. Both cell lines were exposed for 24 h to increasing concentrations of BPPB (0.4–85.3 µM). Growth inhibition/death were determined by the MTT test, while cell cytotoxicity was determined by LDH assay, with respect to untreated control cells. Results are reported as bar graphs in Figure 8 and as dispersion graphs in Figures S13 and S14 in Supplementary Materials (Section S2).

[1] = In vitro hemolytic toxicity on red blood cells; assay type: cell-based, human; settings: human
Procedure: (§1) The hemolytic ratio was evaluated, as recently reported with slight changes, in EDTA-blood samples from four healthy donors from the San Martino Hospital Transfusion Centre. Specifically, red blood cells (RBCs) were isolated by diluting 0.2 mL of blood with 0.4 mL of phosphate-buffered saline (PBS) and centrifuging it for 5 min at 10,000× g. The pellet, consisting of RBCs, was washed 5 times with 1.0 mL PBS and finally resuspended with 2.0 mL PBS. The assay was carried out on 0.1 mL of resuspended RBCs added to 0.1 mL of H2O (positive control), 0.1 mL of PBS (negative control), or 0.1 mL of the different concentrations (0.1–50 µM) of the compound to be tested (BPPB). The samples were incubated for 60 min at 37 °C, and at the end, they were centrifuged for 5 min at 10,000× g. Finally, 0.1 mL of supernatant was transferred to a transparent 96-well plate and measured by a spectrophotometer (Dynex Technologies; Chantilly, VA, U.S.A.) at 595 nm. The hemolytic ratio was calculated using the following formula:Hemolytic ratio (%) = (OD TEST − OD NEGATIVE CONTROL)/(OD POSITIVE CONTROL − OD NEGATIVE CONTROL) × 100
(§2) The hemolytic ratio percentage (%) caused by BPPB was assessed as recently reported with slight changes. In particular, EDTA-blood samples from four healthy donors were exposed to increasing concentrations of BPPB (0.1–50 µM).

red blood cells (RBCs) = test: In vitro hemolytic toxicity on red blood cells; assay type: cell-based, human; settings: for Hemolysis (hemolytic ratio): 60 min; for IC50: 60 min at 37 °C, 0.1–50 µM, blood of four healthy donors, read-out: IC50 RBCs (concentration needed to cause 50% hemolysis)
Procedure: as §1, §2

Compound: c1ccc([P+](CCCCCCCCCCCC[P+](c2ccccc2)(c2ccccc2)c2ccccc2)(c2ccccc2)c2ccccc2)cc1 [BPPB, 1,1-(1,12-dodecanediyl)bis [1,1, 1]-triphenylphosphonium di-bromide]
- LDH release Cos-7 (optical density) (Cos-7 cells; 4.3 µM): 0.30 OD
- LDH release Cos-7 (optical density) (Cos-7 cells; 8.5 µM): 0.80 OD
- Concentrations with a safety profile toward Cos-7 (Cos-7 cells; LDH test): ≤ 4.3 µM
- selectivity ratio at 60 min ([1]; NB cells 24 h exposure, read-out: Selectivity index (SI) = IC50 RBCs / IC50 HTLA-ER): > 10
- viability at 60 min ([1]; isolated red blood cells, concentration at which both NB cell populations were fully exterminated, read-out: RBC viability): 98.4%
- Hemolysis (hemolytic ratio) (red blood cells (RBCs); 10 µM): 25.1%
- Hemolysis (hemolytic ratio) (red blood cells (RBCs); 20 µM): 50.8%
- IC50 (red blood cells (RBCs)): 14.9 µM
- IC50 (red blood cells (RBCs); Homo sapiens, Erythrocyte, 1 h): 14.9 µM
- Selectivity index (SI) = IC50 RBCs / IC50 HTLA-230 (red blood cells (RBCs); NB cells 24 h exposure): > 74
- Selectivity index (SI) = IC50 RBCs / IC50 HTLA-ER (red blood cells (RBCs); NB cells 24 h exposure): 13.56
